Source: patent US11319322B2, “Substituted aryl ether compound, preparation method thereof, pharmaceutical composition and use thereof” (Xiamen University, priority 2017, dated 2022)

How the values were obtained:
Type in all cases: cell-based
KIF5B-RET-BaF3 = biological target: T1, KIF5B-RET-BaF3 (Homo sapiens, UniProt P07949); assay: Growth inhibition of KIF5B-RET-BaF3 cells stably transfected with kinase (MTS); details: 48 h, read-out: KIF5B-RET (IC50/nM)
T1 construct: fused on or other part: P33176 (Kinesin-1 heavy chain)
T1 sequence (P07949 whole entry, change not shown, the tested form may be a part): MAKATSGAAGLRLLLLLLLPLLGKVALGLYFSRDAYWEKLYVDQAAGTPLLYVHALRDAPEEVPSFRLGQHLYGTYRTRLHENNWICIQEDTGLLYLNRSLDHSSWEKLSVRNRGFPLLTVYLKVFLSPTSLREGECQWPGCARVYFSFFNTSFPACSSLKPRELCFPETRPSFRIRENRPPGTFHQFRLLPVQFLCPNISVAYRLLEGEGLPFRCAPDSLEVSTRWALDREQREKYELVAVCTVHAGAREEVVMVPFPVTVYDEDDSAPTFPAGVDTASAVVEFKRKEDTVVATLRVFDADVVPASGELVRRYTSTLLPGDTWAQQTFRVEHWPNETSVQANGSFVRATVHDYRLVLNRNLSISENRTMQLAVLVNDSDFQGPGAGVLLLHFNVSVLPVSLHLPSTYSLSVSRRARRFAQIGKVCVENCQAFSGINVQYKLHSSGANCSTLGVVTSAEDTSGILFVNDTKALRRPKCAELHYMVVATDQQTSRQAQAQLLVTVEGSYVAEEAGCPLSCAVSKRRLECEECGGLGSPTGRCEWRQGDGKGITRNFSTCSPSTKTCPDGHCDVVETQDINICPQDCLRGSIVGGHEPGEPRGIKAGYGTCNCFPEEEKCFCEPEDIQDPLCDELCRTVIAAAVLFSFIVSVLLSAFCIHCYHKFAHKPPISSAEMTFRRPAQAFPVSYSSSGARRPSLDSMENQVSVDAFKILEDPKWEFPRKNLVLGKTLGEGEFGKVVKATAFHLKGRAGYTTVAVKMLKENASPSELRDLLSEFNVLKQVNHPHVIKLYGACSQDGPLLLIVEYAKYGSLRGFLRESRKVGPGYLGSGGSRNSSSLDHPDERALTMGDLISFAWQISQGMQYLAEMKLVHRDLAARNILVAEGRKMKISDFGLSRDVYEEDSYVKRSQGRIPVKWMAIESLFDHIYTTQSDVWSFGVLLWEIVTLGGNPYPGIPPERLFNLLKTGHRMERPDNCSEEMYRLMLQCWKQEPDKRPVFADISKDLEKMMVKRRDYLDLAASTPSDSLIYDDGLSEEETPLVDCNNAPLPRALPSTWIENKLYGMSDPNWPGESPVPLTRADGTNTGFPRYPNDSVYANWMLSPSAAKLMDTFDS
Method in brief: (§1)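 IC50 derived from growth inhibition by MTS absorbance at 490 nm after 48 h compound exposure (top 10 μM, 1:3 steps, 8 points, 0.1% DMSO) of 2×10^4 RET-fusion (CCDC6-RET, KIF5B-RET) or wild-type BaF3 cells per well, in triplicate.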

LC-2/AD cells = assay: Growth inhibition of RET-positive non-small cell lung cancer cells LC-2/AD (MTS); details: Homo sapiens, LC-2/AD non-small cell lung cancer cells, 48 h
Description: Growth inhibitory activity of compounds on kinase RET-positive non-small cell lung cancer cells LC-2/AD
The specific test method is given as follows:
1) Medium: DMEM (Dulbecco's modified eagle medium) or RPMI 1640 (containing 10% fetal bovine serum, 100 μg/mL ampicillin, 100 μg/mL streptomycin).
2) Reagents: MTS reaction solution (containing 2 mg/mL of MTS [3-(4,5-dimethylthiazol-2-yl)-5-(3-carboxymethoxyphenyl)-2-(4-sulfophenyl)-2H-tetrazolium, inner Salt]; 100 μg/mL PES (phenazine […])).
3) Compound test: LC-2/AD cells (2×10^4 cells/well) were incubated into a 96-well culture plate, the volume of cell culture fluid was 90 μL, and then 10 μL of the compound at each gradient concentration was added (the highest concentration was 10 μM, which was diluted stepwise by ⅓, and 8 concentration points were set in total; the system contained 0.1% DMSO (dimethyl sulfoxide)). The cell plate with uniformly mixed compound was cultured in a cell culture incubator (37° C.; 5% CO2) for 48 h, then 20 μL of MTS reaction solution was added, uniformly mixed and incubated in the cell culture incubator (37° C.; 5% CO2) for 1-4 hr; OD values at 490 nm were measured by a microplate reader (VARIOSKAN FLASH, Thermo). Three parallels were set in each group of experiments, with 0.1% (a final concentration) DMSO as a negative control, and a medium without cells or compounds as a blank control. The cell growth inhibition rate was calculated by the following formula: Cell growth inhibition rate %=1−(ODexperimental group−ODblank group)/(ODnegative group−ODblank group)×100%
4) IC50 calculation: The semi-inhibitory concentration of the compound acting on cell growth was calculated using GradPad Prism 5 software according to the measured cell growth inhibition rate.

CCDC6-RET-BaF3 = biological target: T2, CCDC6-RET-BaF3 (Homo sapiens, UniProt P07949); assay: Growth inhibition of CCDC6-RET-BaF3 cells stably transfected with kinase (MTS); details: 48 h, read-out: CCDC6-RET (IC50/nM)
T2 construct: fused on or other part: Q16204 (Coiled-coil domain-containing protein 6)
T2 sequence (P07949 whole entry, change not shown, the tested form may be a part): as above
Method in brief: as §1

wild-type BaF3 = assay: Growth inhibition of wild-type BaF3 cells, broad-spectrum toxicity (MTS); details: Mus musculus, 48 h, read-out: WT Ba/F3 (IC50/nM)
Method in brief: as §1

Row | SMILES | GI50 (KIF5B-RET-BaF3) | IC50 (LC-2/AD cells) | GI50 (CCDC6-RET-BaF3) | IC50 (wild-type BaF3)
1 | COc1cc2nccc(Oc3ccc(NC(=O)C4(C(=O)Nc5ccc(F)cc5)CC4)cc3)c2cc1OC [Cabozantinib] | 302 nM | 4150 nM | 226 nM | 
2 | Cc1ccc(Oc2nc(-c3ccncc3)nc3c2ncn3C)cc1C(=O)Nc1ccc(CN2CCN(C)CC2)c(C(F)(F)F)c1 [I-n-3] | 40.5 nM | 818 nM | 8.38 nM | 
3 | Cc1ccc(C(=O)Nc2ccc(CN3CCN(C)CC3)c(C(F)(F)F)c2)cc1Oc1nc(-c2cccnc2)nc2c1cnn2C [II-m-1] | 8.28 nM | 301 nM | 35.2 nM | 
4 | Cc1ccc(Oc2nc(-c3ccncc3)nc3nn(C)cc23)cc1C(=O)Nc1ccc(CN2CCN(C)CC2)c(C(F)(F)F)c1 [IV-n-2] | 173 nM | 1400 nM | 172 nM | 
5 | Cc1ccc(Oc2cc(-c3cccnc3)nc3[nH]ccc23)cc1C(=O)Nc1ccc(CN2CCN(C)CC2)c(C(F)(F)F)c1 [V-n-1] | 2120 nM |  | 2900 nM | 2310 nM
6 | Cc1ccc(Oc2cc(-c3ccncc3)nc3[nH]ccc23)cc1C(=O)Nc1ccc(CN2CCN(C)CC2)c(C(F)(F)F)c1 [V-n-2] | 616 nM |  | 580 nM | 2070 nM
7 | CN1CCN(Cc2ccc(C(=O)Nc3cccc(Oc4nc(-c5ccncc5)nc5ccsc45)c3)cc2C(F)(F)F)CC1 [VI-h-2] | 493 nM |  | 561 nM | 3900 nM
8 | Cc1ccc(C(=O)Nc2cc(CN3CCN(C)CC3)cc(C(F)(F)F)c2)cc1Oc1nc(-c2ccncc2)nc2ccsc12 [VI-q-2] | 1470 nM |  | 1520 nM | 1520 nM

The next lines start with results.

Row | GI50 (KIF5B-RET-BaF3) | IC50 (LC-2/AD cells) | GI50 (CCDC6-RET-BaF3) | SMILES | IC50 (wild-type BaF3)
9 | 1470 nM |  | 1950 nM | Cc1ccc(NC(=O)c2ccc(CN3CCN(C)CC3)c(C(F)(F)F)c2)cc1Oc1nc(-c2cccnc2)nc2ccsc12 [VI-i-1] | 1530 nM
10 | 3960 nM |  | 2700 nM | Cc1ccc(Oc2nc(-c3cccnc3)nc3ccsc23)cc1NC(=O)c1ccc(CN2CCN(C)CC2)c(C(F)(F)F)c1 [VI-j-1] | 3380 nM
11 | 17 nM |  | 3.08 nM | Cc1ccc(Oc2nc(-c3ccncc3)nc3ccsc23)cc1NC(=O)c1ccc(CN2CCN(C)CC2)c(C(F)(F)F)c1 [VI-j-2] | 3940 nM
12 | 3220 nM |  | 2640 nM | CN1CCN(Cc2ccc(NC(=O)c3cccc(Oc4nc(-c5cccnc5)nc5ccsc45)c3)cc2C(F)(F)F)CC1 [VI-l-1] | 4620 nM
13 | 2840 nM |  | 3240 nM | Cc1ccc(Oc2nc(-c3cccnc3)nc3ccsc23)cc1C(=O)Nc1ccc(CN2CCN(C)CC2)c(C(F)(F)F)c1 [VI-n-1] | 4190 nM
14 | 2870 nM |  | 2170 nM | CN1CCN(Cc2ccc(NC(=O)c3cc(Oc4nc(-c5cccnc5)nc5ccsc45)ccc3Cl)cc2C(F)(F)F)CC1 [VI-o-1] | 3990 nM
15 | 3430 nM |  | 3570 nM | Cc1ccc(C(=O)Nc2cc(CN3CCN(C)CC3)cc(C(F)(F)F)c2)cc1Oc1nc(-c2cccnc2)nc2ccsc12 [VI-q-1] | 4360 nM
